Reference: US20160030364A1, “Therapeutic Compositions and Uses Thereof” (MANUKA HEALTH NEW ZEALAND LIMITED, priority 2013, published 2016)

Tested on: human colorectal adenocarcinoma cells (DLD-1)
Test: MTT proliferation assay, DLD-1 (Examples 1-2)
Type: cell-based
Experimental: Test samples shown below in Table 2 were assessed for their ability to modulate the viability and proliferation of human colorectal adenocarcinoma cells (DLD-1) as assessed by the MTT assay. A positive control, 5-fluorouracil (5-FU) was included in addition to an unsupplemented cell control (negative control) in the study. The test samples were obtained by fractionation of propolis tincture.
Test samples shown below in Table 2 were assessed for their ability to modulate the viability and proliferation of human colorectal adenocarcinoma cells (DLD-1) as assessed by the MTT assay. A positive control, 5-fluorouracil (5-FU) was included in addition to an unsupplemented cell control (negative control) in the study.
Human colorectal adenocarcinoma epithelial cell lines were revived from cryostorage and cultured in the presence of the test and reference samples. The culture conditions for the cells were those described by the supplier of the cells (ATCC). An MTT assay was then performed on the cultures to determine the effect of the samples on the cell proliferation.
Working solutions were prepared by dissolving the test fractions in 15% ethanol (ETOH)/HBSS to a concentration of 2 mg/mL solids.
• 1. Human colorectal adenocarcinoma cells (ATCC CCI-221, DLD-1). • 2. Penicillin-streptomycin solution: 10000 units/mL penicillin, 10 mg/mL streptomycin in 0.9% NaCl (Sigma Cat #P-0781). Stored at −20° C. • 3. DMEM culture medium (Invitrogen Cat #12100-046) Stored at −20° C. • 4. Trypsin-EDTA solution: 0.25% Trypsin/EDTA, Invitrogen Cat#15400054 (×10 in stock). • 5. Phosphate buffered saline (PBS) (Prepared by TBL). • 6. Hanks Balanced Salt Solution (HBSS). (GIBCO Cat No. 14185-052). Stored at 4° C. • 7. Foetal Bovine Serum (GIBCO Cat #10091-148). Stored at −20° C. • 8. MTT Reagent: 100 mg/vial, (SIGMA Cat. No. M-2128) dissolved in PBS at 10 mg/mL and stored at −20° C. 5 mg/mL MTT solution were prepared in PBS and stored at 4° C. as working solution. • 9. MTT lysis buffer: 10% sodium dodecyl sulphate (SDS)/45% Dimethyl Formamide (20 g SDS was dissolved in 100 mL of double-distilled water (DDW), and 90 mL of Dimethyl Formamide added to the SDS solution). The pH was adjusted to 4.7 by glacial acetic acid, and DDW added up to a final volume of 200 mL. • 10. 5-Fluorouracil (5-FU), (Sigma Cat. No. F-6627). Two working solutions were prepared at 150 ng/mL and 75 ng/mL, dissolved in 15% Ethanol/HBSS. Final concentrations were 7.50 ng/mL and 3.75 ng/mL.
The medium for the propagation of the colorectal adenocarcinoma (DLD-1) cells was DMEM, supplemented with penicillin-streptomycin solution (10 mL per litre). FBS was added just before use to give 10% w/v.
• 1. The human colorectal adenocarcinoma cells (DLD-1) obtained from the American Type Culture Collection USA were revived from cryostorage. • 2. Following initial propagation using the media described above (see Medium Preparation), the culture was subcultured using the trypsin-EDTA as follows. The media was removed and 5 mL of the trypsin-EDTA solution added and incubated at 37° C. for 5 min or until all the cells had detached. The trypsin was neutralised by adding an equal volume of DMEM medium and the culture centrifuged at 300 g (1200 rpm) for 5 min at 4° C. • 3. The supernatant was decanted and the cell pellets resuspended in medium DMEM, FBS (10%), penicillin (100 units/mL), streptomycin (100 μg/mL). The cells were cultured at 37° C. in 5% CO2/95% air. • 4. After reaching confluence, the cells were detached using trypsin-EDTA and centrifuged as described in 2 above. • 5. The supernatants were discarded and the cells resuspended in DMEM and supplements as described in 3 above at 1.0×10^4 cells per mL. • 6. Into each well of three 96 well plates, 180 μl of the cells (1,800 cells/well) or medium was added. The plates were incubated at 5% CO2/95% air at 37° C. for 48 h which was sufficient to allow the cells to adhere. • 7. To each well, 20 μl of each, of the test samples or positive control was added. […]

[1] = Example 2, DLD-1, sample 200 μg/mL, 24 hours incubation

## O=c1[nH]cc(F)c(=O)[nH]1 [Sample 5-FU, 5-fluorouracil, reference compound]
Example 1, DLD-1, 5-FU 7.50 ng/ml
  Mean OD (570 nm): 0.657
Homo sapiens, Example 1, DLD-1, 5-FU 7.50 ng/ml
  inhibition at 0.0075 µg/mL: 6.69%

## O=C(O)/C=C/c1ccc(O)cc1 [p-coumaric acid, para-coumaric acid, reference compound]
Isolated from NZ propolis, data not shown in Example 2
  activity against DLD-1: inactive

## O=C1C[C@@H](c2ccccc2)Oc2cc(O)cc(O)c21 [Pinocembrin, reference compound]
[1]
  Mean OD (570 nm): 0.0196
Homo sapiens, Example 2, DLD-1, sample 200 μg/mL, 24 hours incubation
  inhibition at 200 µg/mL: 94%

## COc1cc(O)c2c(=O)cc(-c3ccccc3)oc2c1 [Tectochrysin, tectochrysin]
[1]
  % inhibition: 29.45%
  Mean OD (570 nm): 0.2285
